Measurements published in patent publication US8288552B2, “Dihydropyridone amidesas P2X7 modulators” (Roche Palo Alto LLC, priority 2008, dated 2012).

Each molecule was assayed against T1, P2X7 (UniProt Q99572) (assay: P2X7 pKi of Table 1).
T1 sequence (Q99572 1-595): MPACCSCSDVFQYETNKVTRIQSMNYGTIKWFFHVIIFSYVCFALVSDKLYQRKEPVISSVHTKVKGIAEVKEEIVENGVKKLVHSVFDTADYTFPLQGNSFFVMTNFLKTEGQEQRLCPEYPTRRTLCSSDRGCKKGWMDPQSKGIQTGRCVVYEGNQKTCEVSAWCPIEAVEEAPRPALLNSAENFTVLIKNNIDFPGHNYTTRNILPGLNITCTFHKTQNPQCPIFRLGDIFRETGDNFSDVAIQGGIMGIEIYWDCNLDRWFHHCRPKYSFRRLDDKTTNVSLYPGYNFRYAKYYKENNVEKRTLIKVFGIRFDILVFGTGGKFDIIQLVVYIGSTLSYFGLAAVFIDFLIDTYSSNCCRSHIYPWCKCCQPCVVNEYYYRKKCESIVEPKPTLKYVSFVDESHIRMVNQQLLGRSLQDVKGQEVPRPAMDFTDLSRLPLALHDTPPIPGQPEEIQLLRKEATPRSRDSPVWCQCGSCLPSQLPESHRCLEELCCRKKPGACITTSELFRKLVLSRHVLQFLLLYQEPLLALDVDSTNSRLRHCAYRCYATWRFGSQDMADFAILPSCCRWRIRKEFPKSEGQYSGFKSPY
Format: cell-based
Outline: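 Human P2X7 in 1321N1 cells and rat P2X7 in HEK293 cells, loaded with fluo-3 for 1 hr at 37° C, then exposed to antagonist for 20 min at room temperature. BzATP agonist was used at 100 μM final (human) or 5 μM final (rat), with fluorescence read for 5 min. The response was normalized to maximal fluorescence evoked by 5 μM ionomycin.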
With Cc1cc(CCO)ccc1NC(=O)C1=CNC(=O)C[C@H]1c1ccc(F)cc1 [Compound 105, (S)-4-(4-Fluoro-phenyl)-6-oxo-1,4,5,6-tetrahydro-pyridine-3-carboxylic acid[4-(2-hydroxy-ethyl)-2-methyl-phenyl]-amide] the pKi was 6.77.
Work on COc1cccc(NC(=O)C2=CNC(=O)C[C@H]2c2ccc(F)cc2)c1C [Compound 106, (S)-4-(4-Fluoro-phenyl)-6-oxo-1,4,5,6-tetrahydro-pyridine-3-carboxylic acid(3-methoxy-2-methyl-phenyl)-amide] yielded a pKi of 7.375.
Molecule Cc1c(CO)cccc1NC(=O)C1=CNC(=O)C[C@@H]1c1ccc(F)cc1 [Compound 107, (R)-4-(4-Fluoro-phenyl)-6-oxo-1,4,5,6-tetrahydro-pyridine-3-carboxylic acid(3-hydroxymethyl-2-methyl-phenyl)-amide] has a pKi of 5.36.
COc1cc(NC(=O)C2=CNC(=O)C[C@H]2c2ccc(F)cc2)ccc1F [Compound 108, (S)-4-(4-Fluoro-phenyl)-6-oxo-1,4,5,6-tetrahydro-pyridine-3-carboxylic acid(4-fluoro-3-methoxy-phenyl)-amide] was tested, and the pKi was 6.11.
For COc1cc(NC(=O)C2=CNC(=O)C[C@H]2c2ccc(F)cc2)c(Br)cc1F [Compound 109, (S)-4-(4-Fluoro-phenyl)-6-oxo-1,4,5,6-tetrahydro-pyridine-3-carboxylic acid(2-bromo-4-fluoro-5-methoxy-phenyl)-amide], the pKi was 7.15.
Cc1c(NC(=O)C2=CNC(=O)C[C@H]2c2ccc(F)cc2)cccc1C(=O)N(C)C [Compound 110, (S)-4-(4-Fluoro-phenyl)-6-oxo-1,4,5,6-tetrahydro-pyridine-3-carboxylic acid(3-dimethylcarbamoyl-2-methyl-phenyl)-amide] gave a pKi of 5.43.
In the case of COc1ccc(NC(=O)C2=CNC(=O)C[C@H]2c2ccc(F)cc2)c(C)c1 [Compound 111, (S)-4-(4-Fluoro-phenyl)-6-oxo-1,4,5,6-tetrahydro-pyridine-3-carboxylic acid(4-methoxy-2-methyl-phenyl)-amide], the pKi is reported as 6.5.
In the case of Cc1cc(Cl)c(CCO)cc1NC(=O)C1=CNC(=O)C[C@H]1c1ccc(F)cc1 [Compound 112, (S)-4-(4-Fluoro-phenyl)-6-oxo-1,4,5,6-tetrahydro-pyridine-3-carboxylic acid[4-chloro-5-(2-hydroxy-ethyl)-2-methyl-phenyl]-amide], the pKi is reported as 7.52.
Work on COc1cc(C)c(C)c(NC(=O)C2=CNC(=O)C[C@H]2c2ccc(F)cc2)c1 [Compound 113, (S)-4-(4-Fluoro-phenyl)-6-oxo-1,4,5,6-tetrahydro-pyridine-3-carboxylic acid(5-methoxy-2,3-dimethyl-phenyl)-amide] yielded a pKi of 8.035.
Work on Cc1cc(C)c(OCCO)cc1NC(=O)C1=CNC(=O)C[C@H]1c1ccc(F)cc1 [Compound 114, (S)-4-(4-Fluoro-phenyl)-6-oxo-1,4,5,6-tetrahydro-pyridine-3-carboxylic acid [5-(2-hydroxy-ethoxy)-2,4-dimethyl-phenyl]-amide] yielded a pKi of 7.815.
With Cc1c(C#N)cccc1NC(=O)C1=CNC(=O)C[C@H]1c1ccc(F)cc1 [Compound 115, (S)-4-(4-Fluoro-phenyl)-6-oxo-1,4,5,6-tetrahydro-pyridine-3-carboxylic acid(3-cyano-2-methyl-phenyl)-amide] the pKi was 5.815.
Cc1cc(Cl)c(OCC(C)O)cc1NC(=O)C1=CNC(=O)C[C@H]1c1cccc(F)c1 (stereo partly drawn) [Compound 116, (S)-4-(3-Fluoro-phenyl)-6-oxo-1,4,5,6-tetrahydro-pyridine-3-carboxylic acid[4-chloro-5-(2-hydroxy-propoxy)-2-methyl-phenyl]-amide] gave a pKi of 7.21.
Cc1cc(Cl)c(OCC(C)O)cc1NC(=O)C1=CNC(=O)C[C@H]1c1cccc(F)c1 (stereo partly drawn) [Compound 117, (S)-4-(3-Fluoro-phenyl)-6-oxo-1,4,5,6-tetrahydro-pyridine-3-carboxylic acid[4-chloro-5-(2-hydroxy-propoxy)-2-methyl-phenyl]-amide] gave a pKi of 7.06.
With CCc1cc(Cl)c(OC)cc1NC(=O)C1=CNC(=O)C[C@H]1c1ccc(F)cc1 [Compound 118, (S)-4-(4-Fluoro-phenyl)-6-oxo-1,4,5,6-tetrahydro-pyridine-3-carboxylic acid(4-chloro-2-ethyl-5-methoxy-phenyl)-amide] the pKi was 7.075.
Molecule Cc1ccc(C(C)O)cc1NC(=O)C1=CNC(=O)C[C@H]1c1cccc(F)c1 (stereo partly drawn) [Compound 119, (S)-4-(3-Fluoro-phenyl)-6-oxo-1,4,5,6-tetrahydro-pyridine-3-carboxylic acid[5-(1-hydroxy-ethyl)-2-methyl-phenyl]-amide] has a pKi of 7.2.
In the case of Cc1ccc(NC(=O)C2=CNC(=O)C[C@H]2c2cccc(F)c2)cc1C(C)O (stereo partly drawn) [Compound 120, (S)-4-(3-Fluoro-phenyl)-6-oxo-1,4,5,6-tetrahydro-pyridine-3-carboxylic acid[3-(1-hydroxy-ethyl)-4-methyl-phenyl]-amide], the pKi is reported as 6.635.
Cc1c(NC(=O)C2=CNC(=O)C[C@H]2c2ccc(F)cc2)cc(OCCO)c(F)c1F [Compound 121, (S)-4-(4-Fluoro-phenyl)-6-oxo-1,4,5,6-tetrahydro-pyridine-3-carboxylic acid [3,4-difluoro-5-(2-hydroxy-ethoxy)-2-methyl-phenyl]-amide] gave a pKi of 7.41.
COc1cc(C)c(NC(=O)C2=CNC(=O)CC2c2ccc(Cl)cc2)cc1OC (centres unmarked) [Compound 122, 4-(4-Chloro-phenyl)-6-oxo-1,4,5,6-tetrahydro-pyridine-3-carboxylic acid(4,5-dimethoxy-2-methyl-phenyl)-amide] gave a pKi of 6.465.
Work on CCc1cc(Cl)c(OCCO)cc1NC(=O)C1=CNC(=O)C[C@H]1c1ccc(F)cc1 [Compound 123, (S)-4-(4-Fluoro-phenyl)-6-oxo-1,4,5,6-tetrahydro-pyridine-3-carboxylic acid[4-chloro-2-ethyl-5-(2-hydroxy-ethoxy)-phenyl]-amide] yielded a pKi of 7.293.
Work on Cc1cc(Cl)c(CN(CCO)CCO)cc1NC(=O)C1=CNC(=O)C[C@H]1c1ccc(F)cc1 [Compound 124, (S)-4-(4-Fluoro-phenyl)-6-oxo-1,4,5,6-tetrahydro-pyridine-3-carboxylic acid(5-{[bis-(2-hydroxy-ethyl)-amino]-methyl}-4-chloro-2-methyl-phenyl)-amide] yielded a pKi of 6.75.
For COC(=O)COc1cc(NC(=O)C2=CNC(=O)C[C@H]2c2ccc(F)cc2)c(C)cc1Cl [Compound 125, (2-Chloro-5-{[(S)-4-(4-fluoro-phenyl)-6-oxo-1,4,5,6-tetrahydro-pyridine-3-carbonyl]-amino}-4-methyl-phenoxy)-acetic acid methyl ester], the pKi was 7.645.
In the case of COc1cc(C)c(NC(=O)C2=C(C)NC(=O)CC2c2ccc(F)cc2)cc1OC (centres unmarked) [Compound 126, 4-(4-Fluoro-phenyl)-2-methyl-6-oxo-1,4,5,6-tetrahydro-pyridine-3-carboxylic acid (4,5-dimethoxy-2-methyl-phenyl)-amide], the pKi is reported as 6.48.
COc1cc(C)c(NC(=O)C2=C(C)NC(=O)CC2c2ccc(C(F)(F)F)cc2)cc1OC (centres unmarked) [Compound 127, 2-Methyl-6-oxo-4-(4-trifluoromethyl-phenyl)-1,4,5,6-tetrahydro-pyridine-3-carboxylic acid(4,5-dimethoxy-2-methyl-phenyl)-amide] was tested, and the pKi was 5.055.
